Target: T1, Human Kv1.5 channels (Homo sapiens, UniProt P22460)
T1 construct: expressed in transfected cells; host or cells: Xenopus laevis oocytes (injected with in vitro synthesized Kv1.5 coding RNA)
Test: Kv1.5 currents in Xenopus oocytes, two-microelectrode voltage clamp
Assay type: cell-based
Conditions: human Kv1.5 expressed in Xenopus laevis oocytes; 500 ms voltage jumps to 0 mV and 40 mV; room temperature; percentage inhibition of control current fitted with Hill equation
Description: Human Kv1.5 channels were expressed in xenopus oocytes. For this purpose, oocytes from Xenopus laevis were first isolated and defolliculated. Kv1.5 coding RNA synthesized in vitro was then injected into these oocytes. After Kv1.5 protein expression for 1-7 days, Kv1.5 currents were measured in the oocytes using the two-microelectrode voltage clamp technique. The Kv1.5 channels were activated here with 500 ms voltage jumps to 0 mV and 40 mV. The bath was flushed with a solution of the following: NaCl 96 mM, KCl 2 mM, CaCl2 1.8 mM, MgCl2 1 mM, HEPES 5 mM (titrated with NaOH to pH 7.4). These experiments were carried out at room temperature. The following were used for data collection and analysis: Geneclamp amplifier (Axon Instruments, Foster City, USA) and MacLab D/A converter and software (ADInstruments, Castle Hill, Australia). The compounds according to the invention were tested by adding them to the bath solution in different concentrations. The effects of the compounds were calculated as percentage inhibition of the Kv1.5 control current which was obtained when no compound was added to the solution. The data were then extrapolated using the Hill equation, in order to determine the inhibitory concentrations (IC50) for the respective compounds.

T1 sequence (P22460 whole entry): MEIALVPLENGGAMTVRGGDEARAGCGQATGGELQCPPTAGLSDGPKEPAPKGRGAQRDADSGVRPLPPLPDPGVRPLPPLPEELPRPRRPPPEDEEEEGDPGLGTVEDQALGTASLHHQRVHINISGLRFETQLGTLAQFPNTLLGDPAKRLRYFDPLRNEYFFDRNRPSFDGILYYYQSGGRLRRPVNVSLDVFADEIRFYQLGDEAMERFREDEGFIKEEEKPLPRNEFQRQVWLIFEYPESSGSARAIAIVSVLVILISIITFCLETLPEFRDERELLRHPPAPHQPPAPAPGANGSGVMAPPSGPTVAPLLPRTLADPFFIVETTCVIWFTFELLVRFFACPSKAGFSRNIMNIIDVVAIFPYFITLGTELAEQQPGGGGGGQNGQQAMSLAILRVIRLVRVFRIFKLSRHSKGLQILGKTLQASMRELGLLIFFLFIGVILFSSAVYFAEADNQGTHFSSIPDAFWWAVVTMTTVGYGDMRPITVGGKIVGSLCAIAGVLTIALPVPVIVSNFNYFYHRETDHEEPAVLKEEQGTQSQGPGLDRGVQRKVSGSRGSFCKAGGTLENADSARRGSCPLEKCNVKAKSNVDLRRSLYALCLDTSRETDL

Structure (SMILES)	IC50 [µM]
COc1ccc(S(=O)(=O)Nc2cc(F)ccc2C(=O)N(C)Cc2ccccc2)cc1 [Example 2]	4.1
Cc1ccc(S(=O)(=O)Nc2ccccc2C(=O)NCc2ccccc2)cc1 [Example 6]	4.1
CCN(Cc1ccccc1)C(=O)c1ccccc1NS(=O)(=O)c1ccc(C)cc1 [Example 7]	5
Cc1ccc(S(=O)(=O)Nc2ccccc2C(=O)N(C)CCc2ccccc2)cc1 [Example 8]	4.6
CCN(Cc1ccccc1)C(=O)c1ccccc1NS(=O)(=O)c1ccccc1 [Example 9]	4.7
O=C(NCCc1ccccc1)c1ccccc1NS(=O)(=O)c1ccccc1 [Example 10]	3.8
CN(CCc1ccccc1)C(=O)c1ccccc1NS(=O)(=O)c1ccccc1 [Example 11]	3.7
CCN(Cc1ccccc1)C(=O)c1cc(F)ccc1NS(=O)(=O)c1ccc(C)cc1 [Example 13]	3.7
Cc1ccc(S(=O)(=O)Nc2ccc(F)cc2C(=O)NCCc2ccccc2)cc1 [Example 14]	4.1
COc1ccc(S(=O)(=O)Nc2ccc(OC)cc2C(=O)N(C)Cc2ccccc2)cc1 [Example 15]	4.5
Cc1ccc(CNC(=O)c2c(C)cccc2NS(=O)(=O)c2ccc(C)c(Cl)c2)o1 [Example 20]	3.8
CCCCS(=O)(=O)Nc1ccc(C)cc1C(=O)NCc1ccc(Cl)cc1 [Example 21]	6.1
O=C(NCc1ccccc1)c1cc(Cl)ccc1NS(=O)(=O)c1ccc(Cl)cc1 [Example 22]	6
COc1ccc(NS(=O)(=O)c2cccc3cccnc23)c(C(=O)NCCc2ccc(OC)c(OC)c2)c1 [Example 23]	6.9
CN(Cc1ccccc1)C(=O)c1ccccc1NS(=O)(=O)c1cccc2cccnc12 [Example 24]	4.6
CCc1ccc(S(=O)(=O)Nc2ccccc2C(=O)N(CC)c2ccccc2)cc1 [Example 25]	4.2
CCN(C(=O)c1ccccc1NS(=O)(=O)c1ccc2ccccc2c1)c1ccccc1 [Example 26]	5.6

Further lines, results first:

IC50 [µM]	Structure (SMILES)
3	COc1ccc(NS(=O)(=O)c2cccc(C(F)(F)F)c2)c(C(=O)NCCc2cccs2)c1 [Example 1]
2.1	COc1ccc(NS(=O)(=O)c2ccc(C)cc2)c(C(=O)NCc2ccc(C)o2)c1 [Example 3]
2.4	Cc1cccc(NS(=O)(=O)c2ccc(Cl)cc2)c1C(=O)NCc1ccc(Cl)cc1 [Example 4]
3.2	CCN(Cc1ccccc1)C(=O)c1ccccc1NS(=O)(=O)c1ccc(Cl)cc1 [Example 5]
3.6	Cc1ccc(S(=O)(=O)Nc2ccc(F)cc2C(=O)NCc2ccccc2)cc1 [Example 12]
3.3	COc1ccc(CNC(=O)c2cc(OC)ccc2NS(=O)(=O)c2ccc(Cl)cc2)cc1 [Example 16]
1.6	CCN(C(=O)c1cc(C)ccc1NS(=O)(=O)c1ccc(C)cc1)c1ccccc1 [Example 17]
3.5	Cc1ccc(S(=O)(=O)Nc2ccccc2C(=O)NCc2cccc(C)c2)cc1 [Example 18]
2.6	COc1ccc(NS(=O)(=O)c2ccc(C)cc2)c(C(=O)NCCc2cccs2)c1 [Example 19]
3	CCN(C(=O)c1ccccc1NS(=O)(=O)c1ccc(C)cc1OC)c1ccccc1 [Example 27]
1.2	CCN(C(=O)c1ccccc1NS(=O)(=O)c1cccc2cccnc12)c1ccccc1 [Example 28]
1.9	CCN(C(=O)c1ccccc1NS(=O)(=O)c1cccc2ccccc12)c1ccccc1 [Example 29]

From patent US20020193422A1, “Anthranilamides and methods of their use” (priority 2001, published 2002)
